In patent US4996219A, “Imidazolidine derivatives as immunosuppressives” (Boehringer Mannheim GmbH, priority 1988, dated 1991):
In brackets after ≈: the same amount, converted by molar mass. Several values for one entry are separate records, joined by “and”; a condition that tells them apart may be missing. Equal values may be shown once.

Columns and labels:
Mice splenocytes = assay: Concanavalin-A induced lymphocyte proliferation (LPT); type: cell-based
Experimental: (a) Concanavalin-A induced lymphocyte proliferation (LPT)
Mice splenocytes are adjusted in RPMI 1640 medium (with conventional additions of streptomycin, penicillin, L-glutamine and 10% fetal calf serum) to a cell density of 2×10^6 viable cells per ml. 200 μl of this cell suspension are mixed with 20 μl of an 11-fold concentrated solution of the substance to be tested. 0,5 /μg of Concanavalin A in 10 μl of phosphate buffered saline solution (PBS) are added as mitogenic stimulus to each culture. 5 hours before the end of the 48 h incubation period, the individual cultures receive 20 /μl of a 3H-thymidine solution and the proliferation of the cells is determined by means of incorporated radioactivity.
(§1) For the upper two compounds the means plus standard deviations from n experiments are shown.

[1] = test system: Meth A fibrosaccoma cell line; assay: Tumor-growth Inhibition Test (TGI); type: cell-based, mice; details: 48 h, 3H thymidine incorporation, Imexon and Ex. 1: mean ± standard deviation of n experiments, others: single tests No. 1-3; for IC50: Mus musculus, Meth-A
Experimental: (b) Tumor-growth Inhibition Test
A Meth A fibrosaccoma cell line is passaged weekly as ascites in mice. After the ascites is punctured, the cells are washed and adjusted to a cell density of 5×10^4 vital cells/ml in the aforementioned medium. 200 /μl of this suspension are pipetted into the cavities of a microtitration plate and solution of the substances to be tested are added as above. 3 hours before the end of the 48 h incubation period ^3 H thymidine is added. The proliferation of the individual cultures is determined by the incorporated radioactive thymidine.
as §1

human T-lymphocytes = assay: Interleukin-2 dependent proliferation of human T-lymphocytes (IL-2); type: cell-based; details: IL-2 stimulated, 48 h, 3H thymidine incorporation, Imexon and Ex. 1: mean ± standard deviation of n experiments, others: single tests No. 1-3; for IC50: Homo sapiens, T-lymphocyte
Experimental: (c) Interleukin-2 dependent proliferation of human T-lymphocytes (IL-2)
The mononuclear cell fraction is separated from heparinized human whole blood by means of a Ficoll gradient. After washing twice, the cell number is adjusted to 1×10^6 ml and incubation is carried out with 3 /μg/ml of Concanavalin A for 3 days. After washing twice, the cell number is set to 5×10^5 cells/ml. 160 /μl of this cell suspension are incubated with 20 /μl IL-2 and 20 /μl of a dilution of the test substance in microtitration plates for a total of 48 h. 4 hours before the end of incubation, ^3 H thymidine is added. The proliferation of the cultures is determined by means of the incorporated radioactivity.
as §1

human B lymphocytes = assay: B-cell growth factor dependent proliferation of human B lymphocytes (BCGF); type: cell-based; details: BCGF stimulated, 140 h, 3H thymidine incorporation, Imexon and Ex. 1: mean ± standard deviation of n experiments, others: single tests No. 1-3; for IC50: Homo sapiens, Lymphocyte
Description: (d) B-cell growth factor dependent proliferation of human B lymphocytes (BCGF). The macrophage/monocytes are removed from the mononuclear cell fraction (see above) by adhesion to plastic petri dishes. T lymphocytes are separated by rosetting with neuraminidase-treated sheep erythrocytes. The enriched human B-lymphocyte population so obtained is adjusted to 3×10^5 /ml. 160 /μl of this suspension together with 10 /μl of BCGF (B cell growth factor) and 20 /μl of the substance dilution to be tested are incubated for a total of 140 h. 16 h before the end of incubation, ^3 H thymidine is added and analysis is carried out as already described. […] For the upper two compounds the means plus standard deviations from n experiments are shown.

[2] = Concanavalin A stimulated, 48 h, 3H-thymidine incorporation; Imexon and Ex. 1: mean ± standard deviation of n experiments, others: single tests No. 1-3
[3] = Mus musculus, Splenocyte, Concanavalin A stimulated, 48 h, 3H-thymidine incorporation; Imexon and Ex. 1: mean ± standard deviation of n experiments, others: single tests No. 1-3

| IC50 [1] | IC50 TGI [1] | SMILES | IC50 (Mice splenocytes; Mus musculus, Splenocyte, 48 h, Concanavalin A stimulated, 3H-thymidine incorporation, Imexon and Ex. 1: mean ± standard deviation of n experiments, others: single tests No. 1-3) | IC50 (human T-lymphocytes) | IC50 (human B lymphocytes) | IC50 LPT (Mice splenocytes; [2]) | IC50 (Mice splenocytes; [3]) | IC50 BCGF (human B lymphocytes) | IC50 IL 2 (human T-lymphocytes) |
| --- | --- | --- | --- | --- | --- | --- | --- | --- | --- |
| > 10.3 mg/L | – | C=C1NC(=O)NC1=N [Ex. 1, 4-Imino-5-methyleneimidazolidin-2-one] | 3.9 mg/L (≈ 35.1 µM) | 2.6 mg/L (≈ 23.4 µM) | 1.9 mg/L (≈ 17.1 µM) | – | – | – | – |
| 22.6 mg/L (≈ 181 µM) | > 30 µg⁻¹ mL⁻¹ | CC=C1NC(=O)NC1=N [Ex. 2, 4-imino-5-ethylideneimidazolidin2-one] | – | > 10 mg/L | – | 11,1 /μg/ml | 12 mg/L (≈ 95.9 µM) | – | – |
| – | – | CC(C)=C1NC(=O)NC1=N [Ex. 3, 4-Imino-5-isopropylideneimidazolidin-2-one] | – | – | – | 20,7 /μg/ml and > 10 /μg/ml | – | – | – |
| 4.2 mg/L (≈ 33.6 µM) | 2,3 /μg/ml | C=C1NC(=O)N(C)C1=N [Ex. BV11, 3-methyl-4-imino-5-methyleneimidazolidin-2-one] | – | ≤ 3 mg/L | – | – | – | – | – |
| 7.5 mg/L (≈ 49 µM) | – | C=C1NC(=O)N(CCC)C1=N [Ex. BV12, 3-n-propyl-4-imino-5-methyleneimidazolidin-2-one] | – | 5.1 mg/L (≈ 33.3 µM) | 3.2 mg/L (≈ 20.9 µM) | – | – | 2,6 /μg/ml | 4,6 /μg/ml |
| – | – | C=C1NC(=O)N(C2CCCCC2)C1=N [Ex. BV14, 3-cyclohexyl-4-imino-5-methyleneimidazolidin-2-one] | – | – | < 3 mg/L | – | – | – | – |
| < 3 mg/L | 2,1 /μg/ml and 3,5 /μg/ml | C=C1NC(=O)N(c2ccccc2)C1=N [Ex. BV17, 3-phenyl-4-imino-5-methyleneimidazolidin-2-one] | – | – | – | – | – | – | – |
| 11.3 mg/L (≈ 102 µM) | – | N=C1NC(=O)N2CC12 (centres unmarked) [Imexon, 4-imino-1,3-diazabicyclo[3.1.0]hexan-2-one, reference compound] | – | 5.1 mg/L (≈ 45.9 µM) | 0.9 mg/L (≈ 8.1 µM) | – | 6.3 mg/L (≈ 56.7 µM) | – | – |

| SMILES | IC50 [1] | IC50 TGI [1] | IC50 (Mice splenocytes; Mus musculus, Splenocyte, 48 h, Concanavalin A stimulated, 3H-thymidine incorporation, Imexon and Ex. 1: mean ± standard deviation of n experiments, others: single tests No. 1-3) | IC50 (human T-lymphocytes) | IC50 (human B lymphocytes) | IC50 LPT (Mice splenocytes; [2]) | IC50 (Mice splenocytes; [3]) | IC50 BCGF (human B lymphocytes) | IC50 IL 2 (human T-lymphocytes) |
| --- | --- | --- | --- | --- | --- | --- | --- | --- | --- |
| C=C1NC(=O)N(Cc2ccccc2)C1=N [Ex. 4, 3-Benzyl-4-imino-5-methyleneimidazolidin-2-one] | 2.8 mg/L (≈ 13.9 µM) | – | – | – | < 3 mg/L | – | – | 1,6 /μg/ml | – |
| C=C1NC(=O)N(Cc2ccncc2)C1=N [Ex. BV16, 3-(4-pyridylmethyl)-4-imino-5-methyleneimidazolidin2-one] | 3.9 mg/L (≈ 19.3 µM) | 5,1 /μg/ml and 5,5 /μg/ml | – | 3.5 mg/L (≈ 17.3 µM) | – | – | – | – | 4,8 /μg/ml |
